Laboratory results: US8461389B2, “Psycho-pharmaceuticals” (University College Dublin, National University of Ireland, …, priority 2008, dated 2013)

System: C57B16 mice
Assay: Forced swim test
Type: in vivo
Conditions: 3 mg/kg and 5 mg/kg; n=8; FIG. 10B
Method: • 1. Fill a 12 cm diameter glass cylinder to 10 cm with 22° C. water. • 2. Place two animals simultaneously in individual side-by-side cylinders separated by an opaque screen. • 3. Place mice in the cylinders for 6 minutes. • 4. Observe the behaviour of the mice for the last 4-minutes of the 6-minute experimental session. • 5. Sessions are videotaped and scored blind, Immobility is scored by summing the time spent immobile; movements necessary to maintain the animals head above water were not scored with data from treated groups compared with data from the control group using nonpaired Student's t tests (two tailed). • 6. Animals are dried with paper towels and heat lamps. FST in Rats: Habituation Session (Day 1) • 1. On Day 1, […] prior to testing, place the animals in the experimental room 60 min before the beginning of the habituation session. Randomly assign animals to a drug treatment, but give all animals within a cage the same treatment. Make food and water available throughout the experiment. • 2. Weigh two animals individually, then place one rat in each of the two cylinders (20 cm in diameter×40 cm high) containing water (25° C.) for 15 min (habituation session). No scoring of immobility is performed during the habituation session. […]
Values are expressed as mean±S.E.M (n=8). Statistical difference was determined using a Mann Whitney non-parametric U-test. […]

## CCCCSc1ccc(C(SCCN(C)C)c2ccccc2)cc1 (single isomer, unassigned) [dextrorotary (+) enantiomer]
  antidepressant activity of separated enantiomer (time spent immobile, forced swim test): retains the antidepressant biologic activity
